{"source": "patent US20260027116A1", "about": "“Methods of Treating Chronic Graft-Versus-Host Disease Following Allogeneic Hematopoietic Stem Cell Transplantation” (Kadmon Corporation, LLC, priority 2022, published 2026)", "key": {"cGVHD symptoms": {"system": "cGVHD symptoms", "test": "Example 1: symptom activity by cGVHD Activity Assessment participant self-report", "format": "in vivo, human", "from_the_text": "Number of Participants With Maximal Improvement From Baseline in Symptom Activity by cGVHD Activity Assessment Participant Self-Report. cGVHD symptom severity was self-reported by participants. Participants were asked to rate their disease symptom severity over the last week on the following questions: skin itching at its worst, moth dryness at its worst, mouth pain at its worst, mouth sensitivity at its worst, main compliant on eyes, symptom severity on eyes. The severity rating was done on a 0 to 10-point numeric rating scare, where score 0 indicated ‘not at all severe cGVHD symptoms’ and score 10 indicated ‘most severe cGVHD symptoms possible’. EOT visit was performed within 3 days after the participant's last dose of study drug. Baseline value was defined as valid and last non-missing value obtained within 28 days prior to participant receiving first study medication. […] Analysis was performed on mITT population."}, "cGVHD": {"system": "cGVHD", "test": "Example 1: corticosteroid and calcineurin inhibitor dose change", "format": "in vivo, human", "protocol": "Progression was defined per the 2014 NIH cGVHD Consensus Criteria. Long-term follow-up was conducted every 8 weeks until study closeout. […] Screening was conducted within 28 days of the first study dose. Response was initially assessed after two cycles; however, this was amended to evaluate response on day 1 of each cycle, starting at cycle 2 day 1.\nChange from Baseline in Corticosteroids Dose. An EOT visit was performed within 3 days after the participant's last dose of study drug. Baseline value was defined as valid and last non-missing value obtained within 28 days prior to participant receiving first study medication. The mITT population was analyzed, with the ‘overall number of participants analyzed’=participants with available data for this outcome measure.\nChange from Baseline in Calcineurin Inhibitor (CNI). Calcineurin inhibitors included systemic tacrolimus and cyclosporine. Number of participants who took CNI at Baseline and had reduction and discontinuation in CNI use as compared to Baseline during the study are reported in this outcome measure. EOT visit was performed within 3 days after the participant's last dose of study drug. Baseline value was defined as valid and last non-missing value obtained within 28 days prior to participant receiving first study medication."}, "human serum albumin": {"biological_target": "human serum albumin (Homo sapiens, UniProt P02768)", "sequence (P02768 25-609)": "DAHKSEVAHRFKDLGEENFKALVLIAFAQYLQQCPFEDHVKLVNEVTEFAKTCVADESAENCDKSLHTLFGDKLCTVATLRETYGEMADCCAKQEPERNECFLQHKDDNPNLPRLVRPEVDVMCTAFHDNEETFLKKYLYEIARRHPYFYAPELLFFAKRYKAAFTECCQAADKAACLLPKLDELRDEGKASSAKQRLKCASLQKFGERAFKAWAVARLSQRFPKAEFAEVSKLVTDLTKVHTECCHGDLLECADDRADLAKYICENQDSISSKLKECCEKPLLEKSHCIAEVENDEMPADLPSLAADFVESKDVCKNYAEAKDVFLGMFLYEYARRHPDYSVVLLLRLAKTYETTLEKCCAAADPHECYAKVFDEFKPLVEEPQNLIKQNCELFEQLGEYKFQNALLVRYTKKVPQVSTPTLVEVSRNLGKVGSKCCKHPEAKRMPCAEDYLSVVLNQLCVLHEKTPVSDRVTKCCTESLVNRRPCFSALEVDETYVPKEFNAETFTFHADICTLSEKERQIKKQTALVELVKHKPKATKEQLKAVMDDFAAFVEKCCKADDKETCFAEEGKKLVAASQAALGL", "test": "protein binding in vitro", "format": "in vitro ADME"}, "P-gp": {"biological_target": "P-gp (Homo sapiens, UniProt P08183)", "sequence (P08183 whole entry)": "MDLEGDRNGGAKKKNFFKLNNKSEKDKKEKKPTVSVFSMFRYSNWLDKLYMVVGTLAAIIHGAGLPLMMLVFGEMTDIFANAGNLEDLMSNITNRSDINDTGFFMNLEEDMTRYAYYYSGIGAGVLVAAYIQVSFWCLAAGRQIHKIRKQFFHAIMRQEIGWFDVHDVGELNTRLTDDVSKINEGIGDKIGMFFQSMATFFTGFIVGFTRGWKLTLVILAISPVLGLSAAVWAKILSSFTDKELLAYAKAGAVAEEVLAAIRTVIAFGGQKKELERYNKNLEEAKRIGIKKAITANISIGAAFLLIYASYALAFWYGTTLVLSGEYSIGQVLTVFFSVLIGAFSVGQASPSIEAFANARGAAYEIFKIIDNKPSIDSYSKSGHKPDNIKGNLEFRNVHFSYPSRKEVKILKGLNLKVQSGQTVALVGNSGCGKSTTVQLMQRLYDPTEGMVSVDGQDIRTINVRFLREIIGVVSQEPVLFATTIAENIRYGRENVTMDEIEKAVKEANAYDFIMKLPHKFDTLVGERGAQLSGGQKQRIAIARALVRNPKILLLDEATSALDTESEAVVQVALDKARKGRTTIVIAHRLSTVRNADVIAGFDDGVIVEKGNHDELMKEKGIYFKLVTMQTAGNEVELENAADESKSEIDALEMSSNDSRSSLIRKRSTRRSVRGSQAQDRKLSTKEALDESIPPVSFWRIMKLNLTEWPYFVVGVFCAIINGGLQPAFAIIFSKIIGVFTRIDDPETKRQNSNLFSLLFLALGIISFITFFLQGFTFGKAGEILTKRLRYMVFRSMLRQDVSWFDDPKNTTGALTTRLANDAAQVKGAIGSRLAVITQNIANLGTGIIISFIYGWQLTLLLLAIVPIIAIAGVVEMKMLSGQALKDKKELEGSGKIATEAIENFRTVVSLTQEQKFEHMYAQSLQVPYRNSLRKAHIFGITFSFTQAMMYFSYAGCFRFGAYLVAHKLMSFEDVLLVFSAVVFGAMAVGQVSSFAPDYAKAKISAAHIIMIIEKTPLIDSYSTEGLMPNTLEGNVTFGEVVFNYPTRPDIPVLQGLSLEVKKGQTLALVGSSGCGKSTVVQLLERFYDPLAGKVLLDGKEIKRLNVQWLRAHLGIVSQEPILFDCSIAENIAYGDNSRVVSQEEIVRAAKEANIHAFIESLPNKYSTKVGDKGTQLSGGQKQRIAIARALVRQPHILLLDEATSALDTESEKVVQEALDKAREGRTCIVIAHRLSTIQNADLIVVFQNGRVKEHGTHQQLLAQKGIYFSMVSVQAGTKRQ", "test": "transporter substrate in vitro", "format": "in vitro ADME"}}, "data": [{"smiles": "CC(C)NC(=O)COc1cccc(-c2nc(Nc3ccc4[nH]ncc4c3)c3ccccc3n2)c1", "note": "[Belumosudil, 2-{3-[4-(1H-indazol-5-ylamino)-2-quinazolinyl]phenoxy}-N-(propan-2-yl) acetamide]", "values": [{"measurement": "self-reported symptom activity maximal improvement 0, participants (%)", "setting": "cGVHD symptoms; Cohort 1 200 mg QD", "result": "1 (6%) participants"}, {"measurement": "self-reported symptom activity maximal improvement 1, participants (%)", "setting": "cGVHD symptoms; Cohort 1 200 mg QD", "result": "0 (0%) participants"}, {"measurement": "self-reported symptom activity maximal improvement 2, participants (%)", "setting": "cGVHD symptoms; Cohort 1 200 mg QD", "result": "0 (0%) participants"}, {"measurement": "self-reported symptom activity maximal improvement 4, participants (%)", "setting": "cGVHD symptoms; Cohort 1 200 mg QD", "result": "1 (6%) participants"}, {"measurement": "self-reported symptom activity maximal improvement from baseline −8, participants (%)", "setting": "cGVHD symptoms; Cohort 1 200 mg QD", "result": "0 (0%) participants"}, {"measurement": "self-reported symptom activity maximal improvement −1, participants (%)", "setting": "cGVHD symptoms; Cohort 1 200 mg QD", "result": "2 (12%) participants"}, {"measurement": "self-reported symptom activity maximal improvement −2, participants (%)", "setting": "cGVHD symptoms; Cohort 1 200 mg QD", "result": "2 (12%) participants"}, {"measurement": "self-reported symptom activity maximal improvement −3, participants (%)", "setting": "cGVHD symptoms; Cohort 1 200 mg QD", "result": "2 (12%) participants"}, {"measurement": "self-reported symptom activity maximal improvement −4, participants (%)", "setting": "cGVHD symptoms; Cohort 1 200 mg QD", "result": "2 (12%) participants"}, {"measurement": "self-reported symptom activity maximal improvement −5, participants (%)", "setting": "cGVHD symptoms; Cohort 1 200 mg QD", "result": "2 (12%) participants"}, {"measurement": "self-reported symptom activity maximal improvement −6, participants (%)", "setting": "cGVHD symptoms; Cohort 1 200 mg QD", "result": "0 (0%) participants"}, {"measurement": "self-reported symptom activity maximal improvement −7, participants (%)", "setting": "cGVHD symptoms; Cohort 1 200 mg QD", "result": "3 (18%) participants"}, {"measurement": "self-reported symptom activity maximal improvement 0, participants (%)", "setting": "cGVHD symptoms; Cohort 2 200 mg BID", "result": "1 (6%) participants"}, {"measurement": "self-reported symptom activity maximal improvement 1, participants (%)", "setting": "cGVHD symptoms; Cohort 2 200 mg BID", "result": "0 (0%) participants"}, {"measurement": "self-reported symptom activity maximal improvement 2, participants (%)", "setting": "cGVHD symptoms; Cohort 2 200 mg BID", "result": "1 (6%) participants"}, {"measurement": "self-reported symptom activity maximal improvement 4, participants (%)", "setting": "cGVHD symptoms; Cohort 2 200 mg BID", "result": "0 (0%) participants"}, {"measurement": "self-reported symptom activity maximal improvement from baseline −8, participants (%)", "setting": "cGVHD symptoms; Cohort 2 200 mg BID", "result": "0 (0%) participants"}, {"measurement": "self-reported symptom activity maximal improvement −1, participants (%)", "setting": "cGVHD symptoms; Cohort 2 200 mg BID", "result": "2 (13%) participants"}, {"measurement": "self-reported symptom activity maximal improvement −2, participants (%)", "setting": "cGVHD symptoms; Cohort 2 200 mg BID", "result": "3 (19%) participants"}, {"measurement": "self-reported symptom activity maximal improvement −3, participants (%)", "setting": "cGVHD symptoms; Cohort 2 200 mg BID", "result": "2 (13%) participants"}, {"measurement": "self-reported symptom activity maximal improvement −4, participants (%)", "setting": "cGVHD symptoms; Cohort 2 200 mg BID", "result": "2 (13%) participants"}, {"measurement": "self-reported symptom activity maximal improvement −5, participants (%)", "setting": "cGVHD symptoms; Cohort 2 200 mg BID", "result": "0 (0%) participants"}, {"measurement": "self-reported symptom activity maximal improvement −6, participants (%)", "setting": "cGVHD symptoms; Cohort 2 200 mg BID", "result": "1 (6%) participants"}, {"measurement": "self-reported symptom activity maximal improvement −7, participants (%)", "setting": "cGVHD symptoms; Cohort 2 200 mg BID", "result": "2 (13%) participants"}, {"measurement": "self-reported symptom activity maximal improvement 0, participants (%)", "setting": "cGVHD symptoms; Cohort 3 400 mg QD", "result": "0 (0%) participants"}, {"measurement": "self-reported symptom activity maximal improvement 1, participants (%)", "setting": "cGVHD symptoms; Cohort 3 400 mg QD", "result": "1 (5%) participants"}, {"measurement": "self-reported symptom activity maximal improvement 2, participants (%)", "setting": "cGVHD symptoms; Cohort 3 400 mg QD", "result": "2 (10%) participants"}, {"measurement": "self-reported symptom activity maximal improvement 4, participants (%)", "setting": "cGVHD symptoms; Cohort 3 400 mg QD", "result": "0 (0%) participants"}, {"measurement": "self-reported symptom activity maximal improvement from baseline −8, participants (%)", "setting": "cGVHD symptoms; Cohort 3 400 mg QD", "result": "1 (5%) participants"}, {"measurement": "self-reported symptom activity maximal improvement −1, participants (%)", "setting": "cGVHD symptoms; Cohort 3 400 mg QD", "result": "2 (10%) participants"}, {"measurement": "self-reported symptom activity maximal improvement −2, participants (%)", "setting": "cGVHD symptoms; Cohort 3 400 mg QD", "result": "2 (10%) participants"}, {"measurement": "self-reported symptom activity maximal improvement −3, participants (%)", "setting": "cGVHD symptoms; Cohort 3 400 mg QD", "result": "2 (10%) participants"}, {"measurement": "self-reported symptom activity maximal improvement −4, participants (%)", "setting": "cGVHD symptoms; Cohort 3 400 mg QD", "result": "1 (5%) participants"}, {"measurement": "self-reported symptom activity maximal improvement −5, participants (%)", "setting": "cGVHD symptoms; Cohort 3 400 mg QD", "result": "2 (10%) participants"}, {"measurement": "self-reported symptom activity maximal improvement −6, participants (%)", "setting": "cGVHD symptoms; Cohort 3 400 mg QD", "result": "4 (19%) participants"}, {"measurement": "self-reported symptom activity maximal improvement −7, participants (%)", "setting": "cGVHD symptoms; Cohort 3 400 mg QD", "result": "0 (0%) participants"}, {"measurement": "Change From Baseline in Corticosteroids Dose, mean (SD)", "setting": "cGVHD; Cohort 1 200 mg QD", "result": "−0.110 (0.101) milligrams per kilogram per day"}, {"measurement": "Participants who discontinued CNI, n (%)", "setting": "cGVHD; Cohort 1 200 mg QD", "result": "0 (0%)"}, {"measurement": "Participants with reduction in CNI dose, n (%)", "setting": "cGVHD; Cohort 1 200 mg QD", "result": "5 (83%)"}, {"measurement": "mean percent change in CS dose from baseline, nonresponder", "setting": "cGVHD; Cohort 1 200 mg QD", "result": "−26", "unit": "%"}, {"measurement": "mean percent change in CS dose from baseline, overall", "setting": "cGVHD; Cohort 1 200 mg QD", "result": "−50", "unit": "%"}, {"measurement": "mean percent change in CS dose from baseline, responder", "setting": "cGVHD; Cohort 1 200 mg QD", "result": "−63", "unit": "%"}, {"measurement": "Change From Baseline in Corticosteroids Dose, mean (SD)", "setting": "cGVHD; Cohort 2 200 mg BID", "result": "−0.111 (0.147) milligrams per kilogram per day"}, {"measurement": "Participants who discontinued CNI, n (%)", "setting": "cGVHD; Cohort 2 200 mg BID", "result": "1 (17%)"}, {"measurement": "Participants with reduction in CNI dose, n (%)", "setting": "cGVHD; Cohort 2 200 mg BID", "result": "5 (83%)"}, {"measurement": "mean percent change in CS dose from baseline, nonresponder", "setting": "cGVHD; Cohort 2 200 mg BID", "result": "−37", "unit": "%"}, {"measurement": "mean percent change in CS dose from baseline, overall", "setting": "cGVHD; Cohort 2 200 mg BID", "result": "−36", "unit": "%"}, {"measurement": "mean percent change in CS dose from baseline, responder", "setting": "cGVHD; Cohort 2 200 mg BID", "result": "−36", "unit": "%"}, {"measurement": "Change From Baseline in Corticosteroids Dose, mean (SD)", "setting": "cGVHD; Cohort 3 400 mg QD", "result": "−0.116 (0.152) milligrams per kilogram per day"}, {"measurement": "Participants who discontinued CNI, n (%)", "setting": "cGVHD; Cohort 3 400 mg QD", "result": "3 (27%)"}, {"measurement": "Participants with reduction in CNI dose, n (%)", "setting": "cGVHD; Cohort 3 400 mg QD", "result": "6 (55%)"}, {"measurement": "mean percent change in CS dose from baseline, nonresponder", "setting": "cGVHD; Cohort 3 400 mg QD", "result": "−19", "unit": "%"}, {"measurement": "mean percent change in CS dose from baseline, overall", "setting": "cGVHD; Cohort 3 400 mg QD", "result": "−47", "unit": "%"}, {"measurement": "mean percent change in CS dose from baseline, responder", "setting": "cGVHD; Cohort 3 400 mg QD", "result": "−63", "unit": "%"}, {"measurement": "median time to corticosteroid therapy discontinuation", "setting": "cGVHD; Example 1", "result": 29, "unit": "weeks"}, {"measurement": "mean corticosteroid dose reduction", "setting": "cGVHD; Example 1, all patients", "result": 45, "unit": "%"}, {"measurement": "mean corticosteroid dose reduction", "setting": "cGVHD; Example 1, nonresponders", "result": 26, "unit": "%"}, {"measurement": "mean corticosteroid dose reduction", "setting": "cGVHD; Example 1, responders", "result": 55, "unit": "%"}, {"measurement": "mean percent change in CS dose from baseline, nonresponder", "setting": "cGVHD; Total, N=54", "result": "−26", "unit": "%"}, {"measurement": "mean percent change in CS dose from baseline, overall", "setting": "cGVHD; Total, N=54", "result": "−45", "unit": "%"}, {"measurement": "mean percent change in CS dose from baseline, responder", "setting": "cGVHD; Total, N=54", "result": "−55", "unit": "%"}, {"measurement": "proportion with CS reduction, % (95% CI)", "setting": "cGVHD; Total, N=54", "result": 67, "unit": "%"}, {"measurement": "binding to human serum albumin", "setting": "human serum albumin", "result": 99.9, "unit": "%"}, {"measurement": "P-gp substrate", "setting": "P-gp", "result": "substrate of P-gp"}]}]}
